Results taken from patent US12110286B2, “Benzimidazolone derived inhibitors of BCL6” (Cancer Research Technology Limited, priority 2017, dated 2024).

Target: Trx-6×His-BCL6 (human BCL6 BTB domain covering amino-acid sequence 5-129) (Homo sapiens (Human), UniProt P41182)
Experiment: HTRF in vitro assay (BCL6 / BCOR-AF633 peptide)
Format: binding
Settings: for activity in the HTRF assay: result in words
Method: The % inhibition at each concentration was calculated by normalising FRET ratio to the appropriate high (DMSO with all reagents) and low (DMSO without BCL6) controls.

[1] = further generated data, 1 nM Trx-6×His-BCL6, 300 nM BCOR-AF633 peptide, 0.5 nM anti-6×His-Terbium cryptate
[2] = initially generated data, 10 nM Trx-6×His-BCL6, 300 nM BCOR-AF633 peptide, 1 nM anti-6×His-Terbium cryptate

Compound | activity in the HTRF assay | HTRF pIC50 [1] | HTRF pIC50 [2]
Cn1c(=O)n(CC2CCNCC2)c2cc(Nc3ccnc(Cl)c3C#N)ccc21 [2-chloro-4-((1-methyl-2-oxo-3-(piperidin-4-ylmethyl)-2,3-dihydro-1H-benzo[d]imidazol-5-yl)amino)nicotinonitrile] | did not exhibit the desired activity | – | –
CC1OC(=O)NC1Cn1c(=O)n(C)c2ccc(Nc3ccnc(Cl)c3C#N)cc21 (stereo not shown) [Example 34, 2-chloro-4-((1-methyl-3-((5-methyl-2-oxooxazolidin-4-yl)methyl)-2-oxo-2,3-dihydro-1H-benzo[d]imidazol-5-yl)amino)nicotinonitrile] | – | 5.31 | –
Cn1c(=O)n(CCC(C)(C)O)c2cc(Nc3ccnc(Cl)c3C(F)F)ccc21 [5-((2-chloro-3-(difluoromethyl)pyridin-4-yl)amino)-3-(3-hydroxy-3-methylbutyl)-1-methyl-1,3-dihydro-2H-benzo[d]imidazol-2-one] | did not exhibit the desired activity | – | –
C[C@@H]1CN(c2ncc(Cl)c(Nc3ccc4c(c3)n(CCC(C)(C)O)c(=O)n4C)n2)C[C@H](C)O1 [Example 20j] | – | 6.80 | –
COC(=O)C1CCCC1Cn1c(=O)n(C)c2ccc(Nc3ccnc(Cl)c3C#N)cc21 (stereo not shown) [Example 11, Methyl 2-[[6-[(2-chloro-3-cyano-4-pyridyl)amino]-3-methyl-2-oxo-benzimidazol-1-yl]methyl]cyclopentanecarboxylate] | – | 5.72 | 5.71
COCC(C)(O)CCn1c(=O)n(C)c2ccc(Nc3ccnc(Cl)c3C#N)cc21 (stereo not shown) [Example 27b, 2-chloro-4-((3-(3-hydroxy-4-methoxy-3-methylbutyl)-1-methyl-2-oxo-2,3-dihydro-1H-benzo[d]imidazol-5-yl)amino)nicotinonitrile] | – | 6.14 | –
Cn1c(=O)n(CCC(C)(C)O)c2cc(Nc3nc(N4CCC(C#N)CC4)ncc3Cl)ccc21 [Example 42a, 1-(5-chloro-4-((3-(3-hydroxy-3-methylbutyl)-1-methyl-2-oxo-2,3-dihydro-1H-benzo[d]imidazol-5-yl)amino)pyrimidin-2-yl)piperidine-4-carbonitrile] | – | 6.60 | –
Cn1c(=O)n(CCC(C)(C)O)c2cc(Nc3nc(N4CCCC(CO)C4)ncc3Cl)ccc21 (stereo not shown) [Example 42g, 5-((5-chloro-2-(3-(hydroxymethyl)piperidin-1-yl)pyrimidin-4-yl)amino)-3-(3-hydroxy-3-methylbutyl)-1-methyl-1,3-dihydro-2H-benzo[d]imidazol-2-one] | – | 6.92 | –
CCC1(Cn2c(=O)n(C)c3ccc(Nc4nc(-n5ccc(C(F)(F)F)n5)ncc4Cl)cc32)CN(C)C(=O)O1 (stereo not shown) [Example 20m] | – | 5.97 | –
Cn1c(=O)n(C)c2cc(Nc3ccnc(C(F)(F)F)c3C#N)ccc21 [4-((1,3-dimethyl-2-oxo-2,3-dihydro-1H-benzo[d]imidazol-5-yl)amino)-2-(trifluoromethyl)nicotinonitrile] | did not exhibit the desired activity | – | –
CCC(C)(O)CCn1c(=O)n(C)c2ccc(Nc3ccnc(Cl)c3C#N)cc21 (stereo not shown) [Example 27c, 2-chloro-4-((3-(3-hydroxy-3-methylpentyl)-1-methyl-2-oxo-2,3-dihydro-1H-benzo[d]imidazol-5-yl)amino)nicotinonitrile] | – | 5.93 | –
CCOC(=O)c1cc(Nc2ccc3c(c2)n(CCC(C)C(=O)OC)c(=O)n3C)c(C#N)c(Cl)n1 (stereo not shown) [Example 2b, Ethyl 6-chloro-5-cyano-4-[[3-(4-methoxy-3-methyl-4-oxo-butyl)-1-methyl-2-oxo-benzimidazol-5-yl]amino]pyridine-2-carboxylate] | – | 6.10 | 6.19
CC(C)(O)CCn1c(=O)n(CCC(C)(C)O)c2c(Cl)cc(Nc3nc(N4CC(C)(C)OC(C)(C)C4)ncc3Cl)cc21 [Example 35u, 4-chloro-6-((5-chloro-2-(2,2,6,6-tetramethylmorpholino)pyrimidin-4-yl)amino)-1,3-bis(3-hydroxy-3-methylbutyl)-1,3-dihydro-2H-benzo[d]imidazol-2-one] | – | 5.74 | –
CNC(=O)c1cc(Nc2ccc3c(c2)[nH]c(=O)n3C)c(C#N)c(Cl)n1 [Example 1f, 6-chloro-5-cyano-N-methyl-4-[(1-methyl-2-oxo-3H-benzimidazol-5-yl)amino]pyridine-2-carboxamide] | – | 5.59 | 5.84
Cn1c(=O)n(CCC(C)(C)O)c2cc(Nc3cc(Br)ncc3Cl)ccc21 [Example 22b, 5-((2-bromo-5-chloropyridin-4-yl)amino)-3-(3-hydroxy-3-methylbutyl)-1-methyl-1,3-dihydro-2H-benzo[d]imidazol-2-one] | – | 5.65 | –
Cn1cc2c(n1)CN(c1ncc(Cl)c(Nc3ccc4c(c3)n(CCC(C)(C)O)c(=O)n4C)n1)CC2 [Example 42e, 5-((5-chloro-2-(2-methyl-2,4,5,7-tetrahydro-6H-pyrazolo[3,4-c]pyridin-6-yl)pyrimidin-4-yl)amino)-3-(3-hydroxy-3-methylbutyl)-1-methyl-1,3-dihydro-2H-benzo[d]imidazol-2-one] | – | 6.68 | –
Cn1c(=O)n(CC(O)Cn2cccn2)c2cc(Nc3ccnc(Cl)c3C#N)ccc21 (stereo not shown) [Example 10f] | – | 5.48 | 5.49
CCOC(=O)c1cc(Nc2ccc3c(c2)n(CC(O)CC)c(=O)n3C)n2ncc(F)c2n1 (stereo not shown) [Example 1r, Ethyl 3-fluoro-7-((3-(2-hydroxybutyl)-1-methyl-2-oxo-2,3-dihydro-1H-benzo[d]imidazol-5-yl)amino)pyrazolo[1,5-a]pyrimidine-5-carboxylate] | – | 5.91 | 5.39
Cn1c(=O)n(CCC(C)(C)O)c2cc(Nc3nc(N4CCCC(C#N)C4)ncc3Cl)ccc21 (stereo not shown) [Example 42b, 1-(5-chloro-4-((3-(3-hydroxy-3-methylbutyl)-1-methyl-2-oxo-2,3-dihydro-1H-benzo[d]imidazol-5-yl)amino)pyrimidin-2-yl)piperidine-3-carbonitrile] | – | 6.46 | –
CNC(=O)c1cc(Nc2ccc3c(c2)n(CC[C@H](C)n2cccn2)c(=O)n3C)c(C#N)c(Cl)n1 [Example 1d, 6-chloro-5-cyano-N-methyl-4-[[1-methyl-2-oxo-3-[(3S)-3-pyrazol-1-ylbutyl]benzimidazol-5-yl]amino]pyridine-2-carboxamide] | – | – | 6.04
CCC(C)(O)Cn1c(=O)n(C)c2ccc(Nc3ccnc(Cl)c3C#N)cc21 (stereo not shown) [2-chloro-4-((3-(2-hydroxy-2-methylbutyl)-1-methyl-2-oxo-2,3-dihydro-1H-benzo[d]imidazol-5-yl)amino)nicotinonitrile] | did not exhibit the desired activity | – | –
CCC1(Cn2c(=O)n(C)c3ccc(Nc4nc(N5C[C@@H](C)O[C@@H](C)C5)ncc4Cl)cc32)CNC(=O)O1 (stereo partly shown) [Example 20n] | – | 6.42 | –
CN1CC(Cn2c(=O)n(C)c3ccc(Nc4nc(N5CC(C)(C)OC(C)(C)C5)ncc4Cl)cc32)(C(C)(C)O)OC1=O (stereo not shown) [Example 20b] | – | 6.01 | –
